Results published in patent US11787825B2 (priority 2021, dated 2023).
≈ marks a conversion by molar mass, not a printed value. Like-named read-outs stand apart in the source and are kept apart here.

Assays:
[1] = physchem; details: 25 °C, thermodynamic from solid
[2] = 0.1N HCL, 1.0% DMSO, 24-hour incubation at ambient temperature, maximum theoretical compound concentration 100 μM
[3] = 1×PBS buffer (pH 7.4), 1.0% DMSO, 24-hour incubation at ambient temperature, maximum theoretical compound concentration 100 μM

solubility ([1]; fasted state simulated intestinal fluid (FaSSIF), fassif) | solubility ([1]; fed state simulated intestinal fluid (FeSSIF), fessif) | Structure (SMILES) | solubility ([1]; fassif) | pH 2 solubility [2] | pH 7 solubility [3] | solubility ([1]; fessif) | pH 2 solubility (pH 2) | pH 7 solubility (pH 7.4)
 |  | CC(C)(C#Cc1ccc(-c2ccc(Cl)c3c(N(C(=O)CNC(=O)OCOP(=O)(O)O)S(C)(=O)=O)nn(CC(F)(F)F)c23)c([C@H](Cc2cc(F)cc(F)c2)NC(=O)Cn2nc(C(F)(F)F)c3c2C(F)(F)[C@@H]2C[C@H]32)n1)S(C)(=O)=O [Compound 35, (phosphonooxy)methyl (2-(N-(4-chloro-7-(2-((S)-1-(2-((3bS,4aR)-5,5-difluoro-3-(trifluoromethyl)-3b,4,4a,5-tetrahydro-111-cyclopropa[3,4]cyclopenta[1,2-c]pyrazol-1-yl)acetamido)-2-(3,5-difluorophenyl)ethyl)-6-(3-methyl-3-(methylsulfonyl)but-1-yn-1-yl)pyridin-3-yl)-1-(2,2,2-trifluoroethyl)-1H-indazol-3-yl)methylsulfonamido)-2-oxoethyl)carbamate] | 883 µg/mL (≈ 749 µM) | 2 μM | 48 μM |  |  | 
 |  | C[C@H](NC(=O)OCOP(=O)(O)O)C(=O)N(c1nn(CC(F)(F)F)c2c(-c3ccc(C#CC(C)(C)S(C)(=O)=O)nc3[C@H](Cc3cc(F)cc(F)c3)NC(=O)Cn3nc(C(F)(F)F)c4c3C(F)(F)[C@@H]3C[C@H]43)ccc(Cl)c12)S(C)(=O)=O [Compound 36, (phosphonooxy)methyl ((S)-1-(N-(4-chloro-7-(2-((S)-1-(2-((3bS,4aR)-5,5-difluoro-3-(trifluoromethyl)-3b,4,4a,5-tetrahydrocyclopropa[3,4]cyclopenta[1,2-c]pyrazol-1-yl)acetamido)-2-(3,5-difluorophenyl)ethyl)-6-(3-methyl-3-(methylsulfonyl)but-1-yn-1-yl)pyridin-3-yl)-1-(2,2,2-trifluoroethyl)-1H-indazolyl)methylsulfonamido)-1-oxopropan-2-yl)carbamate] | 661 µg/mL (≈ 554 µM) | 3 μM | 100 μM |  |  | 
 |  | CN(CC(=O)N(c1nn(CC(F)(F)F)c2c(-c3ccc(C#CC(C)(C)S(C)(=O)=O)nc3[C@H](Cc3cc(F)cc(F)c3)NC(=O)Cn3nc(C(F)(F)F)c4c3C(F)(F)[C@@H]3C[C@H]43)ccc(Cl)c12)S(C)(=O)=O)C(=O)OCOP(=O)(O)O [Compound 37, (phosphonooxy)methyl (2-(N-(4-chloro-7-(2-((S)-1-(2-((3bS,4aR)-5,5-difluoro-3-(trifluoromethyl)-3b,4,4a,5-tetrahydro-111-cyclopropa[3,4]cyclopenta[1,2-c]pyrazol-1-yl)acetamido)-2-(3,5-difluorophenyl)ethyl)-6-(3-methyl-3-(methylsulfonyl)but-1-yn-1-yl)pyridin-3-yl)-1-(2,2,2-trifluoroethyl)-1H-indazol-3-yl)methylsulfonamido)-2-oxoethyl)(methyl)carbamate] | 674 µg/mL (≈ 565 µM) | 1 μM | 79 μM |  |  | 
1190 µg/mL (≈ 921 µM) | 3870 µg/mL (≈ 3000 µM) | CC(C)(C#Cc1ccc(-c2ccc(Cl)c3c(N(C(=O)CC4(CN(CC(=O)O)C(=O)OCOP(=O)(O)O)CC4)S(C)(=O)=O)nn(CC(F)(F)F)c23)c([C@H](Cc2cc(F)cc(F)c2)NC(=O)Cn2nc(C(F)(F)F)c3c2C(F)(F)[C@@H]2C[C@H]32)n1)S(C)(=O)=O [Compound 39] |  | 1 μM | 87 μM |  |  | 
 |  | CC(C)(C#Cc1ccc(-c2ccc(Cl)c3c(N(C(=O)Cc4ccccc4OP(=O)(O)O)S(C)(=O)=O)nn(CC(F)(F)F)c23)c([C@H](Cc2cc(F)cc(F)c2)NC(=O)Cn2nc(C(F)(F)F)c3c2C(F)(F)[C@@H]2C[C@H]32)n1)S(C)(=O)=O [Compound 45, 2-(2-(N-(4-chloro-7-(2-((S)-1-(2-((3bS,4aR)-5,5-difluoro-3-(trifluoromethyl)-3b,4,4a,5-tetrahydro-1H-cyclopropa[3,4]cyclopenta[1,2-c]pyrazol-1-yl)acetamido)-2-(3,5-difluorophenyl)ethyl)-6-(3-methyl-3-(methylsulfonyl)but-1-yn-1-yl)pyridin-3-yl)-1-(2,2,2-trifluoroethyl)-1H-indazol-3-yl)methylsulfonamido)-2-oxoethyl)phenyl dihydrogen phosphate] | 456 µg/mL |  |  | 129 µg/mL | 1/1 μM | 1/1 μM
 |  | CC(C)(C#Cc1ccc(-c2ccc(Cl)c3c(N(C(=O)Cc4ccc(OP(=O)(O)O)cc4)S(C)(=O)=O)nn(CC(F)(F)F)c23)c([C@H](Cc2cc(F)cc(F)c2)NC(=O)Cn2nc(C(F)(F)F)c3c2C(F)(F)[C@@H]2C[C@H]32)n1)S(C)(=O)=O [Compound 51, 4-(2-(N-(4-chloro-7-(2-((S)-1-(2-((3bS,4aR)-5,5-difluoro (trifluoromethyl)-3b,4,4a,5-tetrahydro-1H-cyclopropa[3,4]cyclopenta[1,2-c]pyrazolyl)acetamido)-2-(3,5-difluorophenyl)ethyl)-6-(3-methyl-3-(methylsulfonyl)but-1-ynyl)pyridin-3-yl)-1-(2,2,2-trifluoroethyl)-1H-indazol-3-yl)methylsulfonamido)oxoethyl)phenyl dihydrogen phosphate] | 1750 µg/mL |  |  | 1450 µg/mL | 1/100 μM | 1/100 μM
 |  | CN(C(=O)N(c1nn(CC(F)(F)F)c2c(-c3ccc(C#CC(C)(C)S(C)(=O)=O)nc3[C@H](Cc3cc(F)cc(F)c3)NC(=O)Cn3nc(C(F)(F)F)c4c3C(F)(F)[C@@H]3C[C@H]43)ccc(Cl)c12)S(C)(=O)=O)c1ccccc1OP(=O)(O)O [Compound 54, 2-(3-(4-chloro-7-(2-((S)-1-(2-((3bS,4aR)-5,5-difluoro-3-(trifluoromethyl)-3b,4,4a,5-tetrahydro-1H-cyclopropa[3,4]cyclopenta[1,2-c]pyrazol-1-yl)acetamido)-2-(3,5-difluorophenyl)ethyl)-6-(3-methyl-3-(methylsulfonyl)but-1-yn-1-yl)pyridin-3-yl)-1-(2,2,2-trifluoroethyl)-1H-indazol-3-yl)-1-methyl-3-(methylsulfonyl)ureido)phenyl dihydrogen phosphate] | 1090 µg/mL |  |  | 561 µg/mL | 1/63 μM | 1/63 μM
 |  | Cc1cc(CP(=O)(O)O)cc(OP(=O)(O)O)c1C(C)(C)CC(=O)N(c1nn(CC(F)(F)F)c2c(-c3ccc(C#CC(C)(C)S(C)(=O)=O)nc3[C@H](Cc3cc(F)cc(F)c3)NC(=O)Cn3nc(C(F)(F)F)c4c3C(F)(F)[C@@H]3C[C@H]43)ccc(Cl)c12)S(C)(=O)=O [Compound 56, (4-(4-(N-(4-chloro-7-(2-((S)-1-(2-((3bS,4aR)-5,5-difluoro-3-(trifluoromethyl)-3b,4,4a,5-tetrahydro-1H-cyclopropa[3,4]cyclopenta[1,2-c]pyrazolyl)acetamido)-2-(3,5-difluorophenyl)ethyl)-6-(3-methyl-3-(methylsulfonyl)but-1-ynyl)pyridin-3-yl)-1-(2,2,2-trifluoroethyl)-1H-indazol-3-yl)methylsulfonamido)-2-methyloxobutan-2-yl)-3-methyl-5-(phosphonooxy)benzyl)phosphonic acid] | > 10000 µg/mL |  |  |  | 1/100 μM | 1/100 μM
 |  | Cc1cc(P(=O)(O)O)cc(OP(=O)(O)O)c1C(C)(C)CC(=O)N(c1nn(CC(F)(F)F)c2c(-c3ccc(C#CC(C)(C)S(C)(=O)=O)nc3[C@H](Cc3cc(F)cc(F)c3)NC(=O)Cn3nc(C(F)(F)F)c4c3C(F)(F)[C@@H]3C[C@H]43)ccc(Cl)c12)S(C)(=O)=O [Compound 57, (4-(4-(N-(4-Chloro-7-(2-((S)-1-(2-((3bS,4aR)-5,5-difluoro-3-(trifluoromethyl)-3b,4,4a,5-tetrahydro-111-cyclopropa[3,4]cyclopenta[1,2-c]pyrazol-1-yl)acetamido)-2-(3,5-difluorophenyl)ethyl)-6-(3-methyl-3-(methylsulfonyl)but-1-yn-1-yl)pyridin-3-yl)-1-(2,2,2-trifluoroethyl)-1H-indazol-3-yl)methylsulfonamido)-2-methyl-4-oxobutan-2-yl)-3-methyl-5-(phosphonooxy)phenyl)phosphonic acid] | 7300 µg/mL (≈ 5540 µM) |  |  |  | 1/100 μM | 1/100 μM
 |  | Cc1cc(C(=O)NCP(=O)(O)O)cc(OP(=O)(O)O)c1C(C)(C)CC(=O)N(c1nn(CC(F)(F)F)c2c(-c3ccc(C#CC(C)(C)S(C)(=O)=O)nc3[C@H](Cc3cc(F)cc(F)c3)NC(=O)Cn3nc(C(F)(F)F)c4c3C(F)(F)[C@@H]3C[C@H]43)ccc(Cl)c12)S(C)(=O)=O [Compound 60, ((4-(4-(N-(4-chloro-7-(2-((S)-1-(2-((3bS,4aR)-5,5-difluoro-3-(trifluoromethyl)-3b,4,4a,5-tetrahydro-1H-cyclopropa[3,4]cyclopenta[1,2-c]pyrazol-1-yl)acetamido)-2-(3,5-difluorophenyl)ethyl)-6-(3-methyl-3-(methylsulfonyl)but-1-yn-1-yl)pyridin-3-yl)-1-(2,2,2-trifluoroethyl)-1H-indazol-3-yl)methylsulfonamido)-2-methyl-4-oxobutan-2-yl)-3-methyl-5-(phosphonooxy)benzamido)methyl)phosphonic acid] | > 10000 µg/mL |  |  |  | 1/64 μM | 1/64 μM
 |  | Cc1cc(CC(=O)NCP(=O)(O)O)c(C(C)(C)CC(=O)N(c2nn(CC(F)(F)F)c3c(-c4ccc(C#CC(C)(C)S(C)(=O)=O)nc4[C@H](Cc4cc(F)cc(F)c4)NC(=O)Cn4nc(C(F)(F)F)c5c4C(F)(F)[C@@H]4C[C@H]54)ccc(Cl)c23)S(C)(=O)=O)c(OP(=O)(O)O)c1 [Compound 61, ((2-(2-(4-(N-(4-chloro-7-(2-((S)-1-(2-((3bS,4aR)-5,5-difluoro-3-(trifluoromethyl)-3b,4,4a,5-tetrahydro-1H-cyclopropa[3,4]cyclopenta[1,2-c]pyrazol-1-yl)acetamido)-2-(3,5-difluorophenyl)ethyl)-6-(3-methyl-3-(methylsulfonyl)but-1-yn-1-yl)pyridin-3-yl)-1-(2,2,2-trifluoroethyl)-1H-indazol-3-yl)methylsulfonamido)-2-methyl-4-oxobutan-2-yl)-5-methyl-3-(phosphonooxy)phenyl)acetamido)methyl)phosphonic acid] | > 10000 µg/mL |  |  |  | 2/70 μM | 2/70 μM
